# Measured values from patent US6770290B1, “Amphotericin B liposome preparation” (priority 1987, dated 2004).
# Tested on: Candida albicans
# Experiment: Therapeutic efficacy in C. albicans infected mice
# Type: in vivo
# Conditions: single dose 3 days post infection; for 29 SURVIVORS (%) / surviving mice at day 29 post infection: n = 8 per group
# Protocol: 360.1 mg of the spray dried powder were hydrated at 65 degrees Centigrade for 40 minutes with 9% lactose containing 10 mM succinate buffer, pH 5.62. Liposomes were prepared by sonication for four minutes with a ½ probe at 65° C. under a nitrogen atmosphere. Three successive batches of liposomes were prepared in a similar fashion. After sterile filtration, the Amphotericin B concentration was determined to be 1.73 mg/ml.
# For therapeutic efficacy studies, groups of 8 mice were given intravenous inoculations of 3.5×10^5 Candida albicans yeast cells. Three days post-infection, animals were treated with a single dose of either free Amphotericin B or liposomal Amphotericin B. A severe systemic infection existed in animals which were not treated until three days post infection. Each successive group was treated with an increasing dose of medicament in order to establish a dose response relationship. Twenty-nine days after infection the study was evaluated for surviving animals. All untreated control animals had died by 8 days post-infection, with a median survival of 7 days. […] In contrast, all animals treated with 10 or 15 mg/kg of liposomal Amphotericin B were still alive […] post infection.
structure (smiles),measurement,setting,value
"C[C@@H]1[C@H](O)[C@@H](C)/C=C/C=C/C=C/C=C/C=C/C=C/C=C/[C@H](O[C@@H]2O[C@H](C)[C@@H](O)[C@H](N)[C@@H]2O)C[C@@H]2O[C@](O)(C[C@@H](O)C[C@@H](O)[C@H](O)CC[C@@H](O)C[C@@H](O)CC(=O)O[C@H]1C)C[C@H](O)[C@H]2C(=O)O [FREE AM B, Amphotericin B]",29 SURVIVORS (%),AMB dose 0.5 mg/kg,(0%)
same,surviving mice at day 29 post infection,AMB dose 0.5 mg/kg,0
same,29 SURVIVORS (%),AMB dose 1.0 mg/kg,(0%)
same,surviving mice at day 29 post infection,AMB dose 1.0 mg/kg,0
same,29 SURVIVORS (%),AMB dose 1.5 mg/kg,(0%)
same,surviving mice at day 29 post infection,AMB dose 1.5 mg/kg,0
same,survivors at 29 days post infection,any dose level,no dose level of free Amphotericin B which produced any survivors
